# Measured values as given in patent US12115141B2, “Diagnosis of diabetes by detecting aggregated amylin in erythrocytes” (University of Kentucky Research Foundation, priority 2018, dated 2024).
# Read-outs that look alike come from different tables or passages of the source. Where no end group is shown, it is not given here.
# Tests used:
# [1] = tested on: cardiac myocytes; experiment: Amylin incorporation in cardiac myocytes ex vivo (FIG. 15B); type: cell-based
# Description: Cardiac myocytes were isolated from rats in all rat groups. Isolated myocytes are used for testing myocyte accumulation of amylin (by ELISA and Western blot, as shown before^8,10), sarcolemmal structural integrity (dye leakage assay, electron microscopy, LC-MS/MS and fluorescent markers) and myocyte Ca^2+ cycling (see below). Each experiment is performed on hearts/myocytes from a number of rats/group. Calculation of the minimum sample size with a two-tail t-test considering α=0.05 and 1−β=0.8; performed with GPower 3.1.9.2.
# [2] = target: T1, amylin (Homo sapiens, UniProt P10997); experiment: Amylin aggregation with 14,15-EET (FIG. 15A); type: biochemical
# T1 construct: is a 37-amino acid peptide synthesized and co-secreted with insulin
# T1 sequence (P10997 34-70 limits assumed): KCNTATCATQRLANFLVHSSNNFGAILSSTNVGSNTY
# [3] = tested on: RBCs / cultured vascular endothelial cells; experiment: RBC adhesion assay on cultured vascular endothelial cells; type: cell-based, rat
# Description: RBCs collected from each HIP rat group (normal, pre-diabetes, diabetes, ±high-fat diet) are infused into AKO rats (300 μL RBCs, daily, 7 days, q.d., via the tail vein). Because diabetes develops later (by 6 mo) in female vs. male HIP rats, AKO rats are matched for age and sex to HIP rats providing the RBCs for infusion. At the end of infusion period, rats are sacrificed, perfused with saline through a catheter implanted into the right external jugular vein to wash out the blood from blood vessels, followed by heart collection and paraffin embedding. Confocal microscopy is used to identify the attachment of amylin-loaded RBCs to vascular endothelium (as in FIG. 5A). Before analysis, heart sections are incubated with 1% Sudan black to block autofluorescence. Control sections with either omitted primary or secondary antibodies are used to establish specific staining. […] Adherence is calculated as percentage of optical density of adhered Hb (as in FIG. 5C).
# In some embodiments, adult rat microvascular endothelial cells (RA-6024, Cell Biologics, IL) were cultured on 96-wells cell culture plate coated with cell attachment factor solution (123-100, Sigma, MO). […] The amount of hemoglobin in each well was measured from the optical density (OD) as described above. Adherence was calculated as the percentage of OD of adhered hemoglobin/(OD of total hemoglobin×dilution factor).
# [4] = tested on: AKO mice; conditions: cited from earlier work; for amylin deposits in the myocardium: i.v. q.d., 7 days
# [5] = tested on: diabetic UCD rats; experiment: Intravenous aggregated human amylin in diabetic UCD rats; type: in vivo, rat
# Description: To examine further a possible ‘amylin stress” on oxygen-sensing pathways, aggregated human amylin (hA) (0.08 μg/g body weight) was intravenously administered to diabetic UCD rats, daily, for one week. […] This acute “amylin stress” provoked an increase in plasma EPO level (FIG. 23E; the “after hA inj” rat group) and no difference in renal HIF-2α and HIF-1α levels in whole kidney tissue homogenate (FIG. 23F).
# [6] = tested on: WT rat RBCs; experiment: RBC shape by flow cytometry after incubation with human amylin; type: cell-based
# Description: In all rat groups (±high-fat diet), the RBC shape distributions are analyzed by FACScan flow cytometry (Becton Dickinson LSRII) as a function of characteristic RBC amylin levels, as in FIG. 4D. The Pearson coefficient of dissymmetry (PCD) shown in FIG. 4D reflects the sphericity of RBCs (PCD=0 indicates RBC spherical shape).
# In some embodiments, RBCs (1×10^7 cells) were aliquoted to assay tubes, washed twice with 2 mL incubation buffer (0.5% BSA in PBS), and resuspended in 100 μL incubation buffer. RBCs were incubated with an anti-amylin antibody (1:200, T-4157, Bachem-Peninsula Laboratories, CA) for 1 hour on ice, washed twice with PBS by centrifugation at 1000×g for 1 minute and then incubated with goat anti-rabbit Alexa Fluor® 488 (A11029, Invitrogen, MA) for 30 min on ice. RBCs were then washed twice before re-suspension in 200 μl PBS, and analyzed by flow cytometer (Becton Dickinson LSRII) within 90 min. To assess the cell shape, RBCs were first gated on a forward scatter (FSC)/side scatter (SSC) plot. The R1 events arevisualized using a FSC-A/FSC-H dot plot. For detecting amylin deposited on RBCs, the cells were first gated on a forward scatter (FSC)/side scatter (SSC) plot. RBCs were further gated to determine the amylin signal (Alexa 488), using negative control (no antibody) and positive control to set the upper and lower boundaries.
# [7] = tested on: HIP rats; conditions: cited from earlier work
# [8] = kidney tissue homogenates, FIG. 23G
compound,measurement,setting,value
"CCCCCC1OC1C/C=C\C/C=C\C/C=C\CCCC(=O)O (racemic) [14,15-EET, (±)14(15)-EET]",amylin incorporation in cardiac myocytes,[1],reduced
same,amylin aggregation,[2],reduced
same,adhesion of HIP rat RBCs to cultured endothelial cells,"[3]; ex vivo incubation, FIG. 22D",reduced
"human amylin: 37-amino acid amyloid-forming peptide (islet amyloid polypeptide; IAPP), used recombinant/synthetic, aggregated (KCNTATCATQRLANFLVHSSNNFGAILSSTNVGSNTY)",Sarcolemmal Ca2+ leak and Ca2+ transients,[4]; females,no significant changes
same,amylin deposits in the myocardium,[4],showed amylin deposits in the myocardium
same,Sarcolemmal Ca2+ leak and Ca2+ transients,[4]; myocytes from male AKO mice,increased
same,amylin deposition on RBCs,"[5]; 0.08 μg/g body weight i.v. daily, one week, FIG. 23D",amylin deposition on RBCs
same,plasma EPO level,"[5]; 0.08 μg/g i.v. daily, one week, vs baseline, FIG. 23E",increase
same,Arginase 1 protein levels,[5]; [8],elevated
same,arginase 2 protein expression,[5]; [8],no significant change
same,renal HIF-2α and HIF-1α levels,"[5]; whole kidney tissue homogenate, FIG. 23F",no difference
same,RBC adherence to cultured endothelial cells,"[3]; WT rat RBCs incubated 50 μmol/L, 2 h, FIG. 5C",increased
same,structural change of RBCs (rounded shape),"[6]; 50 μmol/L, 2 h",replicated
same,morphological change of RBCs (PCD),"[6]; 4 hours, FIG. 27",replicated
"rodent amylin: non-amyloidogenic (i.e., monomeric) rodent amylin (KCNTATCATQRLANFLVRSSNNLGPVLPPTNVGSNTY; ends and bridges not checked; cysteine pairing not given here; UniProt P12969 38-74, looked up)",amylin deposits in the myocardium,[4],not
same,Sarcolemmal Ca2+ leak and Ca2+ transients,[4]; rat amylin-infused mice,no significant changes
CC(=O)N1CCC(NC(=O)NC23CC4CC(CC(C4)C2)C3)CC1 [APAU],amylin incorporation into RBCs and cardiac myocytes,[7]; pre-diabetic HIP rats,lower
same,heart function,"[7]; pre-diabetic HIP rats, prior study",improved
same,levels of aggregated amylin in blood and cardiac myocytes,"[7]; pre-diabetic male HIP rats, 10 weeks, prior study",lower levels
